Source: ChEMBL document CHEMBL3414430 (J Med Chem, 2015)
≈ marks a conversion by molar mass, not a printed value. Calls of active or inactive are those of the source. The calls are words filed in the database; no cut-off is given here.

Tests used:
[1] = Solubility of the compound in PBS measured after overnight incubation by LYSA assay; type: physicochemical
[2] = biological target: Histone deacetylase 1 (Homo sapiens, UniProt Q13547)
Description: Inhibition of HDAC1 (unknown origin) using RHKK(Ac)AMC as substrate

[3] = biological target: T1, Protein deacetylase HDAC6 (Homo sapiens, UniProt Q9UBN7)
T1 sequence (Q9UBN7 whole entry): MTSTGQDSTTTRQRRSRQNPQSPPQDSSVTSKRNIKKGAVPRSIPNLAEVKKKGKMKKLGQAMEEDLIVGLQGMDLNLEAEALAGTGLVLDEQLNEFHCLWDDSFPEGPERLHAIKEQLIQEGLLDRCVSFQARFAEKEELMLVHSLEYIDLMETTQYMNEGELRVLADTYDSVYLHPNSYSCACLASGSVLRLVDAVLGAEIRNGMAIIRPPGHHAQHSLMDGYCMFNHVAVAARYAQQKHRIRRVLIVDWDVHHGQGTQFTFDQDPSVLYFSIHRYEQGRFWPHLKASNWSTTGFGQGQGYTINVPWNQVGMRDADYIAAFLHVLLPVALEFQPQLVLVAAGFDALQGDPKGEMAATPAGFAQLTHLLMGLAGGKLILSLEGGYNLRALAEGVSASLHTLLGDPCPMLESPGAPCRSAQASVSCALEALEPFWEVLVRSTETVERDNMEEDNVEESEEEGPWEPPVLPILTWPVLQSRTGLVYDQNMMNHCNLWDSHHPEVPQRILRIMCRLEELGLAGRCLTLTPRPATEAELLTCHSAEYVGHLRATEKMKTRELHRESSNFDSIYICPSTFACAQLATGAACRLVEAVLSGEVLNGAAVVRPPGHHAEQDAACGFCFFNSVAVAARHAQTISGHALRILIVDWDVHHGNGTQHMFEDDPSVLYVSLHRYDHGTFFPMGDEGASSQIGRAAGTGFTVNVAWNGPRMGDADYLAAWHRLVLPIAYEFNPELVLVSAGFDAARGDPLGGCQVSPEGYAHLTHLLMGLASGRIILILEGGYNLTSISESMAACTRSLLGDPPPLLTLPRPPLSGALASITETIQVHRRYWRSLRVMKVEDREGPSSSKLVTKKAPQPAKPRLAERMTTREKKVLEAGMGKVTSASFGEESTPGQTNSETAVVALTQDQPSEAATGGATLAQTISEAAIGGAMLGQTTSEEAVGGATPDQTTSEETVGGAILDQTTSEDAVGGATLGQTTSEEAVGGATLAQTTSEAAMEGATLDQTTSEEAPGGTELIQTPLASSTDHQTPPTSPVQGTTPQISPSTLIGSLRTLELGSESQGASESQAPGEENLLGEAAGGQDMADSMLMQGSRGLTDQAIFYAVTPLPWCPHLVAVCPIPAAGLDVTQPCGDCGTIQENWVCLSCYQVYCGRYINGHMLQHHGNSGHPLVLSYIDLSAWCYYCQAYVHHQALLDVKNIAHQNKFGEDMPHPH
Description: Inhibition of HDAC6 (unknown origin) using RHKK(Ac)AMC as substrate

[4] = biological target: T2, Histone deacetylase 8 (Homo sapiens, UniProt Q9BY41)
T2 sequence (Q9BY41 whole entry): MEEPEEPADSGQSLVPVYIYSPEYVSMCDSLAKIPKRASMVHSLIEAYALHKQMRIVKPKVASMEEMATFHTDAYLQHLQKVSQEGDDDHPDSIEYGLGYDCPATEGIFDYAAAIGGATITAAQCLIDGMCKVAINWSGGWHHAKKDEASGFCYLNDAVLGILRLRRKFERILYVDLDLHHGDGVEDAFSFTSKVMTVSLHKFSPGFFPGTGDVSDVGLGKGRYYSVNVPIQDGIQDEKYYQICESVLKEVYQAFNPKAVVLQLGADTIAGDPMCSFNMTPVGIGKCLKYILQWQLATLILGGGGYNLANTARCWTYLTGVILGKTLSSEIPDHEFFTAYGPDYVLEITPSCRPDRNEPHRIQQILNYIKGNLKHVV
Description: Inhibition of HDAC8 (unknown origin) using RHK(Ac)K(Ac)AMC as substrate

[5] = biological target: T3, Histone deacetylase 1/2/3/6 (Homo sapiens) (UniProt Q13547+O15379+Q9UBN7+Q92769); assay: Inhibition of HDAC1/HDAC2/HDAC3 in human HeLa cells assessed as induction of p21 gene expression at 3 to 10 uM after 15 hrs by luciferase reporter gene assay; type: cell-based
[6] = biological target: T1, Protein deacetylase HDAC6; remark: listed apart in the source
Description: Inhibition of HDAC6 in human A549 cells assessed as induction of tubulin acetylation after 17 to 18 hrs by ELISA

[7] = Plasma clearance in ICR mouse; type: ADME, organism-based
[8] = biological target: T3, Histone deacetylase 1/2/3/6 (Homo sapiens); details: HeLa, at 10 µM
Description: Inhibition of HDAC1/HDAC2/HDAC3 in human HeLa cells assessed as induction of p21 gene expression at 10 uM after 15 hrs by luciferase reporter gene assay relative to HDAC1 inhibitor SNDX-275

[9] = Intrinsic clearance in human liver microsomes at 1 uM preincubated for 10 mins followed by NADPH addition measured over 30 mins by LC-MS/MS analysis; type: ADME; details: read-out: CLH
[10] = Intrinsic clearance in mouse liver microsomes at 1 uM preincubated for 10 mins followed by NADPH addition measured over 30 mins by LC-MS/MS analysis; type: ADME; details: read-out: CLH
[11] = system: Mus musculus; assay: AUC (0 to infinity) in ICR mouse at 10 mg/kg, iv; type: ADME, organism-based, Plasma; design: time infinity, dose 10 mg/kg, route intravenous; details: in vivo
[12] = Half life in ICR mouse at 10 mg/kg, iv; type: ADME, organism-based; design: dose 10 mg/kg, route intravenous; details: in vivo
[13] = system: Mus musculus; assay: AUC (0 to infinity) in ICR mouse at 100 mg/kg, po; type: ADME, organism-based, Plasma; design: time infinity, dose 100 mg/kg, route oral; details: in vivo
[14] = Oral bioavailability in ICR mouse at 100 mg/kg; type: ADME, organism-based; details: in vivo
[15] = Cmax in ICR mouse at 100 mg/kg, po; type: ADME, organism-based; design: dose 100 mg/kg, route oral; details: in vivo
[16] = biological target: T3, Histone deacetylase 1/2/3/6 (Homo sapiens); assay: Inhibition of HDAC1/HDAC2/HDAC3 in human HeLa cells assessed as induction of p21 gene expression at 10 uM after 15 hrs by luciferase reporter gene assay; type: cell-based
[17] = system: Mus musculus; assay: AUC (0 to infinity) in ICR mouse at 50 mg/kg, po; type: ADME, organism-based, Plasma; design: time infinity, dose 50 mg/kg, route oral; details: in vivo
[18] = Oral bioavailability in ICR mouse at 50 mg/kg; type: ADME, organism-based; details: in vivo

Chain of Histone deacetylase 1 (Q13547 whole entry): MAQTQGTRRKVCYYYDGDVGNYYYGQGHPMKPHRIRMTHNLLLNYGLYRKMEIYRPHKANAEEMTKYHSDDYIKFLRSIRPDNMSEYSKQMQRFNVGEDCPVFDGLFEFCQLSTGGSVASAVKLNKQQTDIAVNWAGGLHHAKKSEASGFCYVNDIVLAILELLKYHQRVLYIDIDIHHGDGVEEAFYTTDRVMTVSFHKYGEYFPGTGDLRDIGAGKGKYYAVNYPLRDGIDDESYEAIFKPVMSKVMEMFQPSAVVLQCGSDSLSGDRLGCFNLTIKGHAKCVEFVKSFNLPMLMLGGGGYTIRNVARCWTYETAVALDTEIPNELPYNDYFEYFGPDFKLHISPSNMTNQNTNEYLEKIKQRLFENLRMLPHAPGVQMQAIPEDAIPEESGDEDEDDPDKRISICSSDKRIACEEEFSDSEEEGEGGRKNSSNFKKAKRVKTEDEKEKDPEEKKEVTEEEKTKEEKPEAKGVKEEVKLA
T3 sequence (O15379 whole entry, looked up, one chain of several): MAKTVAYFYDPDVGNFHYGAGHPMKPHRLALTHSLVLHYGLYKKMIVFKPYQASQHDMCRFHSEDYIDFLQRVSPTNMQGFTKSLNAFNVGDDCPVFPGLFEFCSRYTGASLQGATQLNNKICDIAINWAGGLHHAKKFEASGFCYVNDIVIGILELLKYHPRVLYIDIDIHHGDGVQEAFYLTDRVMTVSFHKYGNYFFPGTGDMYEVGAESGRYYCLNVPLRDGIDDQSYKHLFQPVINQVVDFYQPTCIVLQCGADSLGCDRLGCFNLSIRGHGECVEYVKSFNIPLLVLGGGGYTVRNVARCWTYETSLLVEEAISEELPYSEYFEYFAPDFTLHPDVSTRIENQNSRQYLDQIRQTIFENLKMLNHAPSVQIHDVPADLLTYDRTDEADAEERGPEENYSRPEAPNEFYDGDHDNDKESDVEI
T3 sequence (Q13547 whole entry, looked up, one chain of several): as the sequence (Q13547 whole entry) above
T3 sequence (Q92769 whole entry, looked up, one chain of several): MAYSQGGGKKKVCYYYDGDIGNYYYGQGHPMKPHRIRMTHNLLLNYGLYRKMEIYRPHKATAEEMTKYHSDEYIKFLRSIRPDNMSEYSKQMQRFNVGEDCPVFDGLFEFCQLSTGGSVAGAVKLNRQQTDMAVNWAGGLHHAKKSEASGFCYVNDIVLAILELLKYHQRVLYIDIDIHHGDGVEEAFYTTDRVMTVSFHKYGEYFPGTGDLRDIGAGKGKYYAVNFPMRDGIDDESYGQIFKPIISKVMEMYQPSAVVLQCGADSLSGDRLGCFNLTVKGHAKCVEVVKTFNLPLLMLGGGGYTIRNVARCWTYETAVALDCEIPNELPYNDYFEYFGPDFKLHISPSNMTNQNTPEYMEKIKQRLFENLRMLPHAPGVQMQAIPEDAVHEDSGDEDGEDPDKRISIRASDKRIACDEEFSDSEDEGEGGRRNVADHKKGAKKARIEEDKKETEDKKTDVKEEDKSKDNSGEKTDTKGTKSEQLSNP

Structure (SMILES) | solubility [1] [µg/mL] | IC50 [2] [nM] | IC50 [3] [nM] | IC50 [4] [nM] | EC50 [6] [nM] | also measured
O=C(NO)c1ccc(NC2CCN(Cc3ccccc3)C2=O)cc1 (stereo unspecified) | > 385 | 11700 | 510 | 760 | – | –
C[C@@]1(Nc2ccc(C(=O)NO)cc2)CCN(c2ccc(Cl)cc2)C1=O | 34 (≈ 94.5 µM) | 24500 | 260 | 590 | 1900 | inhibition [5]: inactive
O=C(NO)c1ccc2c(c1)C[C@H](Nc1nccc(-c3cccnc3)n1)CC2 | – | – | – | – | – | clearance [7]: 99 mL/min/kg
O=C(NO)c1ccc(NC2CCN(c3ccccc3Cl)C2=O)cc1 (stereo unspecified) | 24 (≈ 69.4 µM) | 21800 | 360 | 150 | – | –
O=C(NO)c1ccc(NC2CC(=O)N(c3ccccc3)C2)cc1 (stereo unspecified) | > 350 | > 100000 | 2260 | 6250 | 18100 | inhibition [8]: inactive
O=C(NO)c1ccc(NC2CCN(c3ccc4ccccc4c3)C2=O)cc1 (stereo unspecified) | < 1 | – | – | – | 1100 | –
O=C(NO)c1ccc(NC2CCN(c3ccc(Cl)cc3)C2=O)cc1 (stereo unspecified) | < 1 | 14300 | 160 | 120 | – | CLint scaled at 1 µM [9]: 8 mL/min/kg; CLint scaled at 1 µM [10]: 44 mL/min/kg; inhibition [5]: inactive; clearance [7]: 156 mL/min/kg; AUC [11]: 1065 µg/L/h; half-life [12]: 66 min; AUC [13]: 278 µg/L/h; bioavailability [14]: 3%; Cmax [15]: 57 ng/mL
O=C(NO)c1ccc(OC2CCN(c3ccccc3)C2=O)cc1 (stereo unspecified) | 203 (≈ 650 µM) | > 100000 | 5740 | 4920 | > 30000 | inhibition [8]: inactive
CS(=O)(=O)c1ccc(N2CCC(Nc3ccc(C(=O)NO)cc3)C2=O)cc1 (stereo unspecified) | 97 (≈ 249 µM) | 17100 | 140 | 120 | – | –
CC1(Nc2ccc(C(=O)NO)cc2)CCN(c2ccc3ncccc3c2)C1=O (stereo unspecified) | 17 (≈ 45.2 µM) | 6020 | 18 | 76 | – | inhibition [16]: Active
CN(c1ccc(C(=O)NO)cc1)C1CCN(c2ccccc2)C1=O (stereo unspecified) | – | > 100000 | 48800 | 8200 | > 30000 | inhibition [8]: inactive
O=C(NO)c1ccc(NC2CCN(c3ccc(C(F)(F)F)cc3)C2=O)cc1 (stereo unspecified) | 43 (≈ 113 µM) | 26700 | 250 | 110 | 16200 | –
N#Cc1ccc(N2CCC(Nc3ccc(C(=O)NO)cc3)C2=O)cc1 (stereo unspecified) | 28 (≈ 83.2 µM) | 12800 | 100 | 160 | 3100 | –
CN(C)CCOc1cccc(N2CCC(Nc3ccc(C(=O)NO)cc3)C2=O)c1 (stereo unspecified) | > 400 | – | – | – | 2000 | –
CC1(Nc2ccc(C(=O)NO)cc2)CCN(c2ccccc2)C1=O (stereo unspecified) | 415 (≈ 1280 µM) | > 100000 | 460 | 590 | 2600 | –
O=C(NO)c1ccc(NC2CCN(c3ccc(Cl)cc3)C2)cc1 (stereo unspecified) | < 1 | 19200 | 860 | 860 | – | CLint scaled at 1 µM [10]: 53 mL/min/kg
O=C(NO)c1ccc(NC2CCN(CCc3ccccc3)C2=O)cc1 (stereo unspecified) | 63 (≈ 186 µM) | 8880 | 240 | 260 | 16600 | –
O=C(NO)c1ccc(NC2CCN(c3ccc(Cl)c(Cl)c3)C2=O)cc1 (stereo unspecified) | < 1 | 15900 | 63 | 160 | – | –
O=C(NO)c1ccc2c(c1)CC(Nc1nccc(-c3cccnc3)n1)CN2 (stereo unspecified) | 210 (≈ 579 µM) | 9960 | 12 | – | – | clearance [7]: 74 mL/min/kg; inhibition [8]: inactive
O=C(NO)c1ccc(NC2CCN(c3ccc(Cl)cc3)C2=O)cc1F (stereo unspecified) | < 1 | – | – | – | 13500 | –
CC1(Nc2ccc(C(=O)NO)cc2)CCN(c2ccc(Cl)cc2)C1=O (stereo unspecified) | 6 (≈ 16.7 µM) | 11200 | 21 | 410 | – | inhibition [16]: Active
O=C(CCCCCCC(=O)Nc1ccccc1)NO [VORINOSTAT] | > 385 | – | – | – | – | CLint scaled at 1 µM [9]: 0.1 mL/min/kg; CLint scaled at 1 µM [10]: 33 mL/min/kg; clearance [7]: 112 mL/min/kg; AUC [11]: 1486 µg/L/h; half-life [12]: 24 min; AUC [17]: 619 µg/L/h; bioavailability [18]: 8%
O=C(NO)c1ccc(NC2CCN(c3cccc(Cl)c3)C2=O)cc1 (stereo unspecified) | 17 (≈ 49.2 µM) | 12100 | 90 | 180 | – | –
CNc1ccc(C(=O)NO)cc1 | – | 52300 | 1770 | 940 | 19200 | inhibition [8]: inactive
O=C(NO)c1ccc(NC2CCN(c3ccc(Cl)cc3)C2=O)c(Cl)c1 (stereo unspecified) | < 1 | 29400 | 1070 | 22400 | 17400 | –
